Source: patent US20230192661A1, “1, 4, 5, 6-TETRAHYDROPYRIMIDINE-2-AMINE DERIVATIVE” (UBE Corporation, priority 2020, published 2023)
pIC50: −log10 of the molar value.

Assays:
[1] = biological target: T1, αvβ1 (UniProt G3HZ55+P06756); assay: αvβ1 cell adhesion inhibition test (αv-transfected CHO cells on human fibronectin); format: cell-based; conditions: human fibronectin coating, 1 mM MnCl2, 1 hour, read-out: IC50 (rate of inhibition of cell adhesion, αvβ1)
T1 construct: expressed in transfected cells; host or cells: CHO cells deficient in α5 gene, transfected with αv gene
T1 sequence (P06756 31-889 limits assumed): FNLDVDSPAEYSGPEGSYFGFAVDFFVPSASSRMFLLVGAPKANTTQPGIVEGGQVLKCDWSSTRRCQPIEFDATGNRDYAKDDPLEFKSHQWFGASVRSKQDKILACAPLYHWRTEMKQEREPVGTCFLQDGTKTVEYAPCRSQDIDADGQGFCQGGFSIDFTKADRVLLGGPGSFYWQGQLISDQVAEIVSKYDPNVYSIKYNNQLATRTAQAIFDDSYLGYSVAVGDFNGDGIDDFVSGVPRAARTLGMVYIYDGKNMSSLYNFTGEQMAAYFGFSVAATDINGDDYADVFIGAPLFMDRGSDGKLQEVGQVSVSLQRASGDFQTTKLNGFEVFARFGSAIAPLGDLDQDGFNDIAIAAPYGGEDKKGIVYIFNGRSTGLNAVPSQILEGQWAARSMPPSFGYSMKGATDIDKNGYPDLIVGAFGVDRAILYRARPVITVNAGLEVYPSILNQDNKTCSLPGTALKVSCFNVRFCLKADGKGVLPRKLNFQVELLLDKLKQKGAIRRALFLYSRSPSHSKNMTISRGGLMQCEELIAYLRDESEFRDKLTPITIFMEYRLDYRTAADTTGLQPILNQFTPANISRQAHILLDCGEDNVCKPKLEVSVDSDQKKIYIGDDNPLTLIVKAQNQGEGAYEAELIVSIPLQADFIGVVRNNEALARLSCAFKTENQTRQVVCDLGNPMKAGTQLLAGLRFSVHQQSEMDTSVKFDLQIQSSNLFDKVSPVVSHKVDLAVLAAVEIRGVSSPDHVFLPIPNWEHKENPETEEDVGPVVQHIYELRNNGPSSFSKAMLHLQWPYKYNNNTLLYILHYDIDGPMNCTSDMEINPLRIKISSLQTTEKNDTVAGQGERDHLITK
T1 sequence (P06756 891-1048 limits assumed): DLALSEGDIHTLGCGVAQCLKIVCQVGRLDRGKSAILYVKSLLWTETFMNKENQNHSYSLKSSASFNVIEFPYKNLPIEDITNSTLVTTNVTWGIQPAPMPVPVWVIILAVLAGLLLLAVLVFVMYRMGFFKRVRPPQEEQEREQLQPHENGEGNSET
T1 sequence (G3HZ55 21-798): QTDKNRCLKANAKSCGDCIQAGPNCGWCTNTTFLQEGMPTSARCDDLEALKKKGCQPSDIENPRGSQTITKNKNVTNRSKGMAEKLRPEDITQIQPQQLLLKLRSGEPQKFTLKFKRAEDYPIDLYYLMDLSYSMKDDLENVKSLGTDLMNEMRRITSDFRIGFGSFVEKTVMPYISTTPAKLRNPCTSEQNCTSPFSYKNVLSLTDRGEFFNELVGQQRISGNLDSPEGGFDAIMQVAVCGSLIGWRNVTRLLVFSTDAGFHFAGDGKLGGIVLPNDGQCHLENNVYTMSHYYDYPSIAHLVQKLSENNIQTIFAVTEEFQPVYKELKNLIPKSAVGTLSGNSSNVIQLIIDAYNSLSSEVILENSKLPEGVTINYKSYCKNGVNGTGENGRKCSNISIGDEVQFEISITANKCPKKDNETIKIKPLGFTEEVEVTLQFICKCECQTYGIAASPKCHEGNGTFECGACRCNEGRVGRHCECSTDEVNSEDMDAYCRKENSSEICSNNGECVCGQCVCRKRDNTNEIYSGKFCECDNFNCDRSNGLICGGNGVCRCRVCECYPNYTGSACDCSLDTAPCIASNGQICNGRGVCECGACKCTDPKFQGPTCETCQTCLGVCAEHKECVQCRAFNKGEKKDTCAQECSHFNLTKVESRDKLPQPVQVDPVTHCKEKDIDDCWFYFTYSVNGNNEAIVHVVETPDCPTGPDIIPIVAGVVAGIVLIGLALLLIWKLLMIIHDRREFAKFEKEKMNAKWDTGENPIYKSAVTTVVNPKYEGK
Procedure: Test Example 1 was performed by partially modifying the method of Reed et al. (Sci Transl Med., 7 (288), 288ra79, 2015).
Human fibronectin (manufactured by Sigma-Aldrich Co. LLC, F0895) was prepared at 1.25 μg/mL with phosphate buffered saline (PBS), dispensed at 100 μL/well to a 96-well plate, and left standing overnight. The plate was washed with Hanks' balanced salt solution (HBSS), then subjected to blocking treatment with Dulbecco's modified Eagle medium (DMEM) containing 1% bovine serum-derived albumin (BSA) (FUJIFILM Wako Pure Chemical Corp., for cell culture, 017-22231), and used as a coated plate in the adhesion test.
αv-transfected cells (CHO cells deficient in α5 gene and transfected with αv gene) cultured in Ham's F-12 medium (FUJIFILM Wako Pure Chemical Corp., 087-08335) containing 10% fetal bovine serum (FBS), 1% penicillin/streptomycin/amphotericin B (manufactured by Thermo Fisher Scientific, Inc., 15240), 1 mM GlutaMAX Supplement (manufactured by Thermo Fisher Scientific, Inc., 35050), and 400 μg/mL hygromycin B (FUJIFILM Wako Pure Chemical Corp., 080-07683) were recovered and suspended in DMEM containing 1 mM MnCl2 (manufactured by Sigma-Aldrich Co. LLC, M1787) to prepare a cell suspension. A test compound dissolved in DMSO was added thereto.
The cell suspension of 1×10^6 cells/mL containing the test compound was added at 100 μL/well to the coated plate and left standing for 1 hour in a 5% CO2 incubator (37° C.). One hour later, the supernatant was removed, and the plate was washed with HBSS. The cells that adhered to each well in the plate were stained with crystal violet, and the cells were lysed, followed by absorbance measurement. Inhibition without substrate coating was defined as 100% inhibition, and inhibition when DMSO was added instead of the test compound was defined as 0% inhibition. The rate of inhibition of cell adhesion by the test compound was calculated according to the following expression.
Rate of inhibition of cell adhesion (%)=[1−{(Absorbance in the case of adding the test compound)−(Absorbance without substrate coating)}/{(Absorbance in the case of adding DMSO)−(Absorbance without substrate coating)}]×100
An IC50 value was calculated from the rate of inhibition of cell adhesion by the test compound. A: IC50<3 nM, B: 3 nM≤IC50<10 nM, C: 10 nM≤IC50<30 nM, D: 30 nM≤IC50<100 nM, or E: IC50≥100 nM.

[2] = test system: TGF-β activation (phosphorylated SMAD3); assay: TGF-β activation inhibition test (inhibition of SMAD3 phosphorylation in TFK-1 cells); format: cell-based; conditions: 48 h, fibronectin-coated plate, cultured 2 days, read-out: IC50 (rate of inhibition of phosphorylated SMAD3)
Procedure: In Test Example 3, the inhibition of TGF-β activation by a compound was detected with the inhibition of SMAD3 phosphorylation as an index. In Test Example 3, the same reagents as in Test Example 1 were used unless otherwise specified.
Human fibronectin was prepared at 14 μg/mL with PBS and then dispensed at 50 μL/well to a 96-well plate. The plate was left standing at room temperature for 1 hour or longer, followed by the removal of the fibronectin solution. The plate was washed with PBS and used as a coated plate.
A test compound dissolved in DMSO was added to RPMI medium 1640 (manufactured by Thermo Fisher Scientific, Inc., 11875) containing 1% FBS and 1% penicillin/streptomycin/amphotericin B to prepare a medium containing the test compound having a concentration of two times the final concentration. This medium was added at 100 μL/well to the coated plate. TFK-1 cells (Cell Resource Center for Biomedical Research, Institute of Development, Aging and Cancer, Tohoku University) cultured in RPMI medium 1640 containing 10% FBS and 1% penicillin/streptomycin/amphotericin B were suspended in RPMI medium 1640 containing 1% FBS and 1% penicillin/streptomycin/amphotericin B to prepare a cell suspension of 1×10^6 cells/mL. The prepared cell suspension was further added at 100 μL/well and cultured for 2 days in a 5% CO2 incubator (37° C.).
Phosphorylated SMAD3 in the cells thus cultured for 2 days was measured using Phospho-SMAD3 (Ser423/425) cellular kit (manufactured by cisbio, 63ADK025), and a DeltaF value was calculated according to the calculation expression of the kit. Inhibition when 10 μM LY364947 (FUJIFILM Wako Pure Chemical Corp., 123-05981) was added instead of the test compound was defined as 100% inhibition, and inhibition when DMSO was added instead was defined as 0% inhibition. The rate of inhibition of phosphorylated SMAD3 by the test compound was calculated according to the following expression.
Rate of inhibition of phosphorylated SMAD3 (%)=[1−{(DeltaF value in the case of adding the test compound)−(DeltaF value in the case of adding 10 μM LY364947)}/{(DeltaF value in the case of adding DMSO)−(DeltaF value in the case of adding 10 μM LY364947)}]×100
An IC50 value was calculated from the rate of inhibition of phosphorylated SMAD3 by the test compound. A: IC50<10 nM, B: 10 nM≤IC50<50 nM, C: 50 nM≤IC50<100 nM, or D: IC50≥100 nM.

Structure (SMILES)	pIC50 [1]	pIC50 [2]
O=C(O)C[C@H](NC(=O)CNC(=O)c1cc(NC2=NCC(F)CN2)c2cn[nH]c2c1)c1cc(Cl)cc(C(F)(F)F)c1 (stereo partly drawn) [Example 1-(b), (3S)-3-(3-chloro-5-(trifluoromethyl)phenyl)-3-(2-(4-((5-fluoro-1,4,5,6-tetrahydropyrimidin-2-yl)amino)-1H-indazole-6-carboxamido)acetamido)propanoic acid]	> 8.52	> 8.00
O=C(O)C[C@H](NC(=O)CNC(=O)c1cc(NC2=NCC(F)CN2)c2cn[nH]c2c1)c1cc(Br)cc(C(F)(F)F)c1 (stereo partly drawn) [Example 2-(b), (3S)-3-(3-bromo-5-(trifluoromethyl)phenyl)-3-(2-(4-((5-fluoro-1,4,5,6-tetrahydropyrimidin-2-yl)amino)-1H-indazole-6-carboxamido)acetamido)propanoic acid]	8.00 to 8.52	> 8.00
O=C(O)C[C@H](NC(=O)CNC(=O)c1cc(NC2=NCC(F)CN2)c2cn[nH]c2c1)c1cc(I)cc(C(F)(F)F)c1 (stereo partly drawn) [Example 3-(b), (3S)-3-(2-(4-((5-fluoro-1,4,5,6-tetrahydropyrimidin-2-yl)amino)-1H-indazole-6-carboxamido)acetamido)-3-(3-iodo-5-(trifluoromethyl)phenyl)propanoic acid]	8.00 to 8.52	> 8.00
Cc1cc([C@H](CC(=O)O)NC(=O)CNC(=O)c2cc(NC3=NCC(F)CN3)c3cn[nH]c3c2)cc(C(F)(F)F)c1 (stereo partly drawn) [Example 4-(b), (3S)-3-(2-(4-((5-fluoro-1,4,5,6-tetrahydropyrimidin-2-yl)amino)-1H-indazole-6-carboxamido)acetamido)-3-(3-methyl-5-(trifluoromethyl)phenyl)propanoic acid]	8.00 to 8.52	> 8.00
COc1cc([C@H](CC(=O)O)NC(=O)CNC(=O)c2cc(NC3=NCC(F)CN3)c3cn[nH]c3c2)cc(C(F)(F)F)c1 (stereo partly drawn) [Example 5-(b), (3S)-3-(2-(4-((5-fluoro-1,4,5,6-tetrahydropyrimidin-2-yl)amino)-1H-indazole-6-carboxamido)acetamido)-3-(3-methoxy-5-(trifluoromethyl)phenyl)propanoic acid]	> 8.52	7.30 to 8.00
O=C(O)C[C@H](NC(=O)CNC(=O)c1cc(NC2=NCC(F)CN2)c2cn[nH]c2c1)c1cc(F)cc(C(F)(F)F)c1 (stereo partly drawn) [Example 6-(b), (3S)-3-(2-(4-((5-fluoro-1,4,5,6-tetrahydropyrimidin-2-yl)amino)-1H-indazole-6-carboxamido)acetamido)-3-(3-fluoro-5-(trifluoromethyl)phenyl)propanoic acid]	> 8.52	7.30 to 8.00
O=C(O)C[C@H](NC(=O)CNC(=O)c1cc(NC2=NCC(F)CN2)c2cn[nH]c2c1)c1cc(C(F)(F)F)cc(C(F)(F)F)c1 (stereo partly drawn) [Example 7-(b), (3S)-3-(3,5-bis(trifluoromethyl)phenyl)-3-(2-(4-((5-fluoro-1,4,5,6-tetrahydropyrimidin-2-yl)amino)-1H-indazole-6-carboxamido)acetamido)propanoic acid]	> 8.52	> 8.00
O=C(O)C[C@H](NC(=O)CNC(=O)c1cc(NC2=NCC(F)CN2)c2cn[nH]c2c1)c1cc(-n2cccn2)cc(C(F)(F)F)c1 (stereo partly drawn) [Example 8-(b), (3S)-3-(3-(1H-pyrazol-1-yl)-5-(trifluoromethyl)phenyl)-3-(2-(4-((5-fluoro-1,4,5,6-tetrahydropyrimidin-2-yl)amino)-1H-indazole-6-carboxamido)acetamido)propanoic acid]	> 8.52	> 8.00
O=C(O)C[C@H](NC(=O)CNC(=O)c1cc(NC2=NCC(F)CN2)c2cn[nH]c2c1)c1cccc(C(F)(F)F)c1F (stereo partly drawn) [Example 9-(b), (3S)-3-(2-(4-((5-fluoro-1,4,5,6-tetrahydropyrimidin-2-yl)amino)-1H-indazole-6-carboxamido)acetamido)-3-(2-fluoro-3-(trifluoromethyl)phenyl)propanoic acid]	8.00 to 8.52	7.00 to 7.30
O=C(O)C[C@H](NC(=O)CNC(=O)c1cc(NC2=NCC(F)CN2)c2cn[nH]c2c1)c1cccc(C(F)(F)F)c1Cl (stereo partly drawn) [Example 10-(b), (3S)-3-(2-chloro-3-(trifluoromethyl)phenyl)-3-(2-(4-((5-fluoro-1,4,5,6-tetrahydropyrimidin-2-yl)amino)-1H-indazole-6-carboxamido)acetamido)propanoic acid]	≤ 7.00	≤ 7.00
O=C(O)C[C@H](NC(=O)CNC(=O)c1cc(NC2=NCC(F)CN2)c2cn[nH]c2c1)c1cc(C(F)(F)F)ccc1F (stereo partly drawn) [Example 11-(b), (3S)-3-(2-(4-((5-fluoro-1,4,5,6-tetrahydropyrimidin-2-yl)amino)-1H-indazole-6-carboxamido)acetamido)-3-(2-fluoro-5-(trifluoromethyl)phenyl)propanoic acid]	8.00 to 8.52	> 8.00
O=C(O)C[C@H](NC(=O)CNC(=O)c1cc(NC2=NCC(F)CN2)c2cn[nH]c2c1)c1cc(C(F)(F)F)ccc1Cl (stereo partly drawn) [Example 12-(b), (3S)-3-(2-chloro-5-(trifluoromethyl)phenyl)-3-(2-(4-((5-fluoro-1,4,5,6-tetrahydropyrimidin-2-yl)amino)-1H-indazole-6-carboxamido)acetamido)propanoic acid]	8.00 to 8.52	≤ 7.00
O=C(O)C[C@H](NC(=O)CNC(=O)c1cc(NC2=NCC(F)CN2)c2cn[nH]c2c1)c1ccc(F)c(C(F)(F)F)c1 (stereo partly drawn) [Example 13-(b), (3S)-3-(2-(4-((5-fluoro-1,4,5,6-tetrahydropyrimidin-2-yl)amino)-1H-indazole-6-carboxamido)acetamido)-3-(4-fluoro-3-(trifluoromethyl)phenyl)propanoic acid]	> 8.52	7.30 to 8.00
Cc1ccc([C@H](CC(=O)O)NC(=O)CNC(=O)c2cc(NC3=NCC(F)CN3)c3cn[nH]c3c2)cc1C(F)(F)F (stereo partly drawn) [Example 14-(b), (3S)-3-(2-(4-((5-fluoro-1,4,5,6-tetrahydropyrimidin-2-yl)amino)-1H-indazole-6-carboxamido)acetamido)-3-(4-methyl-3-(trifluoromethyl)phenyl)propanoic acid]	> 8.52	> 8.00
O=C(O)C[C@H](NC(=O)CNC(=O)c1cc(NC2=NCC(F)CN2)c2cn[nH]c2c1)c1cc(Cl)c(F)c(C(F)(F)F)c1 (stereo partly drawn) [Example 15-(b), (3S)-3-(3-chloro-4-fluoro-5-(trifluoromethyl)phenyl)-3-(2-(4-((5-fluoro-1,4,5,6-tetrahydropyrimidin-2-yl)amino)-1H-indazole-6-carboxamido)acetamido)propanoic acid]	> 8.52	> 8.00
